# Legend:
# [1] = test system: ZIKV human strain PLCal_ZV; experiment: Plaque assay, inhibition of ZIKV infection (strain PLCal_ZV); format: cell-based; conditions: Zika virus, Vero C1008; plaque assay, Vero E6 cells, human strain; read-out: IC50 PLCal_ZV
# Method: (§1) After removal of the unbound compounds by centrifugation (after addition of 3% PEG-6000), ZIKV was incubated with Vero E6 cells in 24-well plates at 37°C for 1 h. The cells were then washed with PBS, overlaid with DMEM containing 1% carboxymethyl cellulose and 2% FBS, and cultured at 37°C for 4–5 days, followed by being stained with 0.5% crystal violet. […] Plaques in each well were calculated, and IC50 of compounds for each compound was calculated using the CalcuSyn computer program.
# [2] = test system: ZIKV human strain R116265; experiment: ZIKV vertical transmission in pregnant Ifnar1−/− mice; format: in vivo; conditions: 5 dpi
# Method: Briefly, groups of 5 pregnant mice (10–12-week-old, E12-14) were i.p. injected with ST087010 (20 mg/kg of body weight, 200 μl/mouse), or DMSO (negative control), 12 h before and 6, 24, and 48 h after i.p. infection with ZIKV (human strain R116265, 10^3 PFU). Five days post-infection, mice were sacrificed; viral titers were assessed using plaque assay in the sera, placenta, fetal brain, and amniotic fluid, and uteri and fetuses were assessed for morphological and size changes. The placenta was also assessed for apoptosis and viral replication by immunofluorescence staining, as described below.
# Immunofluorescence staining was carried out to detect ZIKV and caspase-3 signals in ZIKV-infected mouse tissues. Briefly, tissues were fixed in 4% formaldehyde, embedded in paraffin, and sectioned. The tissue sections were deparaffinized, fixed, and permed using the FIX and PERM Cell Permeabilization Kit (Thermo Fisher Scientific, Waltham, MA, USA). After blocking with 5% BSA, the tissue slides were incubated at 37°C 2 h with ZIKV EDIII-specific human mAb (ZV-67, 1:100, Absolute Antibody, Boston, MA, USA), or rabbit anti-active caspase-3 antibody (1:100, Abcam). The slides were washed with PBS and incubated for 30 min with anti-human FITC antibody (1:100, for ZIKV), or anti-rabbit Alexa Fluor 647 antibody (1:100, for caspase-3). The slides were then counterstained for nuclei, using DAPI (300 nM, Thermo Fisher Scientific, Waltham, MA, USA) for 5 min, and mounted in VectaMount Permanent Mounting Medium (Vector Laboratories, CA, USA). The slides were analyzed using a confocal microscope (Zeiss LSM 880) and ZEN software, and fluorescent signals were quantified by ImageJ software.
# ZIKV NS2B-NS3 protein = target: T1, ZIKV NS2B-NS3 protein (Zika virus, UniProt Q32ZE1); experiment: SPR binding to ZIKV NS2B-NS3
# T1 construct: fused with the genes encoding NS3 protein (residues 1-185) through a linker (Gly4-Thr-Gly4); His6 (C); made in house; host or cells: E. coli
# T1 sequence (Q32ZE1 1499-1683, added parts left off, change not shown): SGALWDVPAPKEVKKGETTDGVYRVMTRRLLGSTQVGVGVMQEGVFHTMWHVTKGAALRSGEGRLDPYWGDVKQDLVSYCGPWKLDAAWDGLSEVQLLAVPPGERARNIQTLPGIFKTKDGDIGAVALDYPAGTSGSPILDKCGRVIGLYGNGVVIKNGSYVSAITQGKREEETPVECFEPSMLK
# Method: (GE Healthcare, Port Washington, NY, USA). Briefly, ZIKV EDIII protein or NS2B-NS3 protein was immobilized on a sensor chip (CM5) using the Amine Coupling Kit (GE Healthcare). Serially diluted ST087010 was added as analytes, and HBS-EP with 10% DMSO (10 mM HEPES, 150 mM NaCl, 3 mM EDTA, 0.05% Tween-20, 10% DMSO, pH 7.4) was used as a running buffer. Biacore BK evaluation software (version 1.1) was applied to analyze the data, and the curve was fitted with a 1:1 binding model.
# ZIKV EDIII protein = target: T2, ZIKV EDIII protein (Zika virus, UniProt A0A024B7W1); experiment: ELISA binding to ZIKV EDIII protein
# T2 construct: EDIII (residues 298-409 in E protein containing a C-terminal human Fc tag); human Fc (C)
# T2 sequence (A0A024B7W1 588-699): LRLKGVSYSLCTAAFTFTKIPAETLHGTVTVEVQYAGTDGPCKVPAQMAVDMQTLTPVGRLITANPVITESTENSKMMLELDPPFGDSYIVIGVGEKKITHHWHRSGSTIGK
# Method: Briefly, ELISA plates were coated with each protein (1 μg/ml) at 4°C overnight and were then incubated with blocking buffer containing 2% fat-free milk in PBST (0.05% Tween-20) at 37°C for 2 h. The above compounds, or DMSO control, at serial dilutions were added to the plates and incubated at 37°C for 2 h. After three washes using PBST, the plates were incubated at 37°C for 2 h with ZIKV EDIII-specific human mAb ZKA64-LALA (0.5 μg/ml) (for binding to ZIKV full-length E or EDIII protein), or ZIKV NS2B-NS3-specific mouse sera (for binding to NS2B-NS3 protein). After further washes, the plates were incubated with horseradish peroxidase (HRP)-conjugated anti-human IgG-Fab (1:3,000, Abcam, Cambridge, MS, USA) or anti-mouse IgG (1:3,000, Sigma) antibody at 37°C for 1 h. The plates were incubated with substrate TMB (3,3′,5,5′-tetramethylbenzidine) for 1 min, and the reaction was stopped by addition of 1 N H2SO4. Absorbance at 450 nm (A450 values) was measured by an ELISA microplate reader. Percent binding (% binding) to the E, EDIII, or NS2B-NS3 protein was calculated in the presence or absence of serially diluted compounds using the formula ((1-(E/EDIII/NS2B-NS3-compound)/(E/EDIII/NS2B-NS3))×100), based on which EC50 was calculated using the CalcuSyn program.
# ZIKV human strain FLR = experiment: Plaque assay, inhibition of ZIKV infection (strain FLR); format: cell-based; conditions: Zika virus, Vero C1008; plaque assay, Vero E6 cells, human strain; read-out: IC50 FLR
# Method: as §1
# [3] = test system: ZIKV human strain IbH 30656; experiment: Plaque assay, inhibition of ZIKV infection (strain IbH 30656); format: cell-based; conditions: Zika virus, Vero C1008; plaque assay, Vero E6 cells, human strain; read-out: IC50 IbH 30656
# Method: as §1
# [4] = test system: ZIKV human strain R103451; experiment: Lethal ZIKV challenge in adult Ifnar1−/− mice, survival and weight; format: in vivo
# Method: Briefly, 7–8-week-old male mice were used, and two separate experiments were performed. […] These mice were i.p. infected with ZIKV (human strain R103451, 200 PFU/mouse) and observed daily for weight changes and survival until 21 dpi. […] Five days later, these mice were sacrificed, and their tissues, including the heart, testis, eye, kidney, and brain, were collected for detection of viral titers by plaque assay, or apoptosis by immunofluorescence staining. Mice losing 20% of initial weight with severe symptoms, including hind limb weakness and paralysis, or 25% of initial weight, were humanely euthanized with an overdose isoflurane in a Bell Jar, followed by cervical dislocation.
# [5] = test system: ZIKV rhesus macaque strain MR 766; experiment: Plaque assay, inhibition of ZIKV infection (strain MR 766); format: cell-based; conditions: Zika virus, Vero C1008; plaque assay, Vero E6 cells, rhesus strain; read-out: IC50 MR 766
# Method: as §1
# [6] = test system: ZIKV human strain R103451; experiment: Plaque assay, inhibition of ZIKV infection (strain R103451); format: cell-based; conditions: Zika virus, Vero C1008; plaque assay, Vero E6 cells, human strain; read-out: IC50 R103451
# Method: as §1
compound,measurement,setting,value
Cc1cc2c(C(C)C)c(O)c(O)c(/C=N/n3c(=O)[nH][nH]c3=O)c2c(O)c1-c1c(C)cc2c(C(C)C)c(O)c(O)c(/C=N/n3c(=O)[nH][nH]c3=O)c2c1O [ST087010],IC50,[1],2.2 µM
same,Staining of ZIKV+ or caspase-3 signals in placental tissues,"[2]; immunofluorescence, compared to DMSO","undetectable, or diminished"
same,"Viral titers in sera, placenta, fetal brain, and amniotic fluid","[2]; pregnant mice, 20 mg/kg i.p., ZIKV R116265 10^3 PFU, compared to DMSO",significantly reduced
same,Condition of fetuses,"[2]; pregnant mice, 20 mg/kg i.p., ZIKV R116265",all in good condition
same,Kd,ZIKV NS2B-NS3 protein,19.9 µM
same,EC50,ZIKV EDIII protein,6.13 µM
same,IC50,ZIKV human strain FLR,2.8 µM
same,IC50,[3],2.9 µM
same,Mice protected from death (survival),"[4]; 20 mg/kg i.p. 12 h before and 6, 24, 48 h post-infection, ZIKV R103451 200 PFU, observed 21 days",50%
same,Weight loss,"[4]; 20 mg/kg i.p., ZIKV R103451 200 PFU, ST087010 figure during 6–12 dpi",less than 25%
same,Body weight relative to weight before the virus infection,"[4]; 20 mg/kg i.p., ZIKV R103451, until 21 dpi",85%
same,IC50,[5],3.5 µM
same,IC50,[6],3.6 µM

# Reference: paper PMC9202104 (BMC Biology, 2022)
